Laboratory results reported in ChEMBL document CHEMBL5291721, “A preclinical secondary pharmacology resource illuminates target-adverse drug reaction associations of marketed drugs” (Nat Commun, 2023).

Assays:
[1] = target: T1, Gastrin/cholecystokinin type B receptor (Homo sapiens, UniProt P32239)
T1 sequence (P32239 whole entry): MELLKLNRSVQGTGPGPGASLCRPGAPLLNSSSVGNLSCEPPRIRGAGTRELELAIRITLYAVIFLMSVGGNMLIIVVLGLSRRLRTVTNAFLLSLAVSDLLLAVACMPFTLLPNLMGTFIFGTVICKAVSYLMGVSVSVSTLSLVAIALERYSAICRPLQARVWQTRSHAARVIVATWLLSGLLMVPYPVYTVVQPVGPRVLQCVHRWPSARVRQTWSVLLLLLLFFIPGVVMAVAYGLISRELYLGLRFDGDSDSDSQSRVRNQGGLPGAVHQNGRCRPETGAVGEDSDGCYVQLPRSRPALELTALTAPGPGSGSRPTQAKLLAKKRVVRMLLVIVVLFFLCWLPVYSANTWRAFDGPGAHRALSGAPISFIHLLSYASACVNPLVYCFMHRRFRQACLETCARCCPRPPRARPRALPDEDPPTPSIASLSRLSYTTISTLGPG

D(1A) dopamine receptor = D(1A) dopamine receptor (Homo sapiens, UniProt P21728); assay type: functional, cell-based
D(1A) dopamine receptor, sequence (P21728 whole entry): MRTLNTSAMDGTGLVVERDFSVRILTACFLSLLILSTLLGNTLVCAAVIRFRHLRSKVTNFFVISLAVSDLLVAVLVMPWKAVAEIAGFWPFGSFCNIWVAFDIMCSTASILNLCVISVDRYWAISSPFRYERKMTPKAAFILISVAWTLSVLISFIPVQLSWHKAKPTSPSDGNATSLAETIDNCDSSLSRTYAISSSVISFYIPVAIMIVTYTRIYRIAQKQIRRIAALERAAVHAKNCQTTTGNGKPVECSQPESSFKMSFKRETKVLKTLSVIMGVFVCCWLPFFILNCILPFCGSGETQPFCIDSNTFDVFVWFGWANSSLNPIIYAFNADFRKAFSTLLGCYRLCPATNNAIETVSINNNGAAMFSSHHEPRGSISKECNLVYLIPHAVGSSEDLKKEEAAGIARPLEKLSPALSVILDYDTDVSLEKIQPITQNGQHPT

[2] = target: Gamma-aminobutyric acid receptor subunit alpha-1 (Rattus norvegicus, UniProt P62813); assay type: functional
Gamma-aminobutyric acid receptor subunit alpha-1, sequence (P62813 whole entry): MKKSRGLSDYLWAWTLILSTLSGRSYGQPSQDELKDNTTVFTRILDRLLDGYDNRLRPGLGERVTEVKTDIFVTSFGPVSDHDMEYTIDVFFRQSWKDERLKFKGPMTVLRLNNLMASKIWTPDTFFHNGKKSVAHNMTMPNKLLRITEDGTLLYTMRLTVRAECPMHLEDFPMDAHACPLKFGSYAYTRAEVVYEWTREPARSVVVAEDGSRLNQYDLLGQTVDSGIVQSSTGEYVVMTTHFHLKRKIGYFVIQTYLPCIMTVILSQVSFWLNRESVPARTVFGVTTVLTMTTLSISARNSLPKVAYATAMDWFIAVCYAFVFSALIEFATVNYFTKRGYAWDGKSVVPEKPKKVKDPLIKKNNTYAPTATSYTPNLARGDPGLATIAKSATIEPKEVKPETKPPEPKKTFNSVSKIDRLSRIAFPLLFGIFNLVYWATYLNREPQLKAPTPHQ

[3] = target: T2, Alpha-2A adrenergic receptor (Homo sapiens, UniProt P08913); assay type: functional, cell-based
T2 sequence (P08913 whole entry): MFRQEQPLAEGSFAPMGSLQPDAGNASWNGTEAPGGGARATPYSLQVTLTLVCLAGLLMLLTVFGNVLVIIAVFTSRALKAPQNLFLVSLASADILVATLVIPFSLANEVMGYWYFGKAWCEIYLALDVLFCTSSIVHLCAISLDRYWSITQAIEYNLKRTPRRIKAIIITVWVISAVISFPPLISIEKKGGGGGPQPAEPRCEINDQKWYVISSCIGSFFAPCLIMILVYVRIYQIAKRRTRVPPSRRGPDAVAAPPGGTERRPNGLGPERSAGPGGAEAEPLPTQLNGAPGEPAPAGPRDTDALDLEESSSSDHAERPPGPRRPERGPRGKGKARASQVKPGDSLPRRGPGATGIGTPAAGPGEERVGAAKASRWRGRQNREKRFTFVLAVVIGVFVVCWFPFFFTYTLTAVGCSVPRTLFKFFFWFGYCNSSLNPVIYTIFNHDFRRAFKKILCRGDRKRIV

[4] = target: Sodium-dependent dopamine transporter (Homo sapiens, UniProt Q01959)
Sodium-dependent dopamine transporter, sequence (Q01959 whole entry): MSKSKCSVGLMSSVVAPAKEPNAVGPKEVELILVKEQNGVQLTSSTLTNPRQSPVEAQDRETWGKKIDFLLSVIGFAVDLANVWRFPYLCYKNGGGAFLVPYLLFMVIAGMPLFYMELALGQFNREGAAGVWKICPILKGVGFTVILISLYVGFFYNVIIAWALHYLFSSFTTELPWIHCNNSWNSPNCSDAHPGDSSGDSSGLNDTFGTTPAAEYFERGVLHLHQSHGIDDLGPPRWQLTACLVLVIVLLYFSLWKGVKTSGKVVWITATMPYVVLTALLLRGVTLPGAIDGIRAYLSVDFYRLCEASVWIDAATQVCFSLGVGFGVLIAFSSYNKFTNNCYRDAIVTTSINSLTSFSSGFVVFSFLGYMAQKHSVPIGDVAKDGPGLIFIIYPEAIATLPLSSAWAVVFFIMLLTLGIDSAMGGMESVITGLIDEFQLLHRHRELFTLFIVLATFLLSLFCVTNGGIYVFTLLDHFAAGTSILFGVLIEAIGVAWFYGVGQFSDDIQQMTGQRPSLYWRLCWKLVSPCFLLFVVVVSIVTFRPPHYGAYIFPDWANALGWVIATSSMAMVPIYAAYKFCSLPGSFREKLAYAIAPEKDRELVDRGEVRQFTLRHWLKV

Glucocorticoid receptor = target: T3, Glucocorticoid receptor (Homo sapiens, UniProt P04150)
T3 sequence (P04150 whole entry): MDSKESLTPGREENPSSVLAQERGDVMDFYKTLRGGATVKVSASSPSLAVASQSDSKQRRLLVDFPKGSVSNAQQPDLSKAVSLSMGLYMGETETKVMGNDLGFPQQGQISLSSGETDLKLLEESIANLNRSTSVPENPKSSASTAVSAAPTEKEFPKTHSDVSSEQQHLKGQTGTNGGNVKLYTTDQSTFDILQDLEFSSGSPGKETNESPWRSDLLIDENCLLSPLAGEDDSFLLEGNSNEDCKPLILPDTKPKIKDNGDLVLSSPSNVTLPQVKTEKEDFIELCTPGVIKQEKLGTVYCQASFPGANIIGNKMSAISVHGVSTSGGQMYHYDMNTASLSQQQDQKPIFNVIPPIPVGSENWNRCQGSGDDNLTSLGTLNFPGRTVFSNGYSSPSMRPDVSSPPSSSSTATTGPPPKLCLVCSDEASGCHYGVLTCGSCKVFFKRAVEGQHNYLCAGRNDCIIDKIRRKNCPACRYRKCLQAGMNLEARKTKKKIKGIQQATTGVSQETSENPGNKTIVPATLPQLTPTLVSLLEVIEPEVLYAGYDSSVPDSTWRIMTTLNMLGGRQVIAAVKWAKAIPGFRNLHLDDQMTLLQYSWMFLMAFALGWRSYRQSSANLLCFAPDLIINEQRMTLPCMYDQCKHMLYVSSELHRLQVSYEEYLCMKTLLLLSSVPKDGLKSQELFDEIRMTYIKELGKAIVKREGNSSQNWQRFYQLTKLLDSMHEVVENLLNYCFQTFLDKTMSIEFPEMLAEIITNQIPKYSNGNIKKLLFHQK

Melanocortin receptor 3 = Melanocortin receptor 3 (Homo sapiens, UniProt P41968)
Melanocortin receptor 3, sequence (P41968 whole entry): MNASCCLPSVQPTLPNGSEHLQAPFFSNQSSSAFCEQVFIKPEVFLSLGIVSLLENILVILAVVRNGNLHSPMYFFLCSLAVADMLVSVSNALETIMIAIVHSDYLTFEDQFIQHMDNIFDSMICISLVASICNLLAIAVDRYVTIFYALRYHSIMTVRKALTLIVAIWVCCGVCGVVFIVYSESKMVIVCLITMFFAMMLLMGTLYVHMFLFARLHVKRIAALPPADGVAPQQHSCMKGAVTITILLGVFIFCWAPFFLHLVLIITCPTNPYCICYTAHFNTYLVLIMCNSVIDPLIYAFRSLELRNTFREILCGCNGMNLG

[5] = target: Sodium-dependent serotonin transporter (Homo sapiens, UniProt P31645)
Sodium-dependent serotonin transporter, sequence (P31645 whole entry): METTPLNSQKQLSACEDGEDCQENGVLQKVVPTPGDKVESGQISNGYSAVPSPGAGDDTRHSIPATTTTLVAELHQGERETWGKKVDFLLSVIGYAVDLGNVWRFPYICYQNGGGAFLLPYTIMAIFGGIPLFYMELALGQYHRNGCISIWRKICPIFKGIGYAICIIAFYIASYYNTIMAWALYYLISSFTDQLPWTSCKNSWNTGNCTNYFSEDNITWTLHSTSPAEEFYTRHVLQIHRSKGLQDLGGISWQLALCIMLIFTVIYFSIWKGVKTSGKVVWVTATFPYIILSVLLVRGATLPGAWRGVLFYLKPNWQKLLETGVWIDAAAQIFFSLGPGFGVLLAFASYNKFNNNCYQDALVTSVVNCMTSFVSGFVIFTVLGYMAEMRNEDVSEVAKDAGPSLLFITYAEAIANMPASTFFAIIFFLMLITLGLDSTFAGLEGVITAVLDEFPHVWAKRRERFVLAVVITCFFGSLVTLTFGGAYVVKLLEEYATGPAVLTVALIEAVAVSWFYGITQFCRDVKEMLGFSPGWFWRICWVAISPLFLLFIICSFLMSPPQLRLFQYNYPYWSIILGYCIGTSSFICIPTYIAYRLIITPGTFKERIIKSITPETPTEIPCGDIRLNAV

[6] = target: 3',5'-cyclic-AMP phosphodiesterase 4D (Homo sapiens, UniProt Q08499); assay type: functional
3',5'-cyclic-AMP phosphodiesterase 4D, sequence (Q08499 whole entry): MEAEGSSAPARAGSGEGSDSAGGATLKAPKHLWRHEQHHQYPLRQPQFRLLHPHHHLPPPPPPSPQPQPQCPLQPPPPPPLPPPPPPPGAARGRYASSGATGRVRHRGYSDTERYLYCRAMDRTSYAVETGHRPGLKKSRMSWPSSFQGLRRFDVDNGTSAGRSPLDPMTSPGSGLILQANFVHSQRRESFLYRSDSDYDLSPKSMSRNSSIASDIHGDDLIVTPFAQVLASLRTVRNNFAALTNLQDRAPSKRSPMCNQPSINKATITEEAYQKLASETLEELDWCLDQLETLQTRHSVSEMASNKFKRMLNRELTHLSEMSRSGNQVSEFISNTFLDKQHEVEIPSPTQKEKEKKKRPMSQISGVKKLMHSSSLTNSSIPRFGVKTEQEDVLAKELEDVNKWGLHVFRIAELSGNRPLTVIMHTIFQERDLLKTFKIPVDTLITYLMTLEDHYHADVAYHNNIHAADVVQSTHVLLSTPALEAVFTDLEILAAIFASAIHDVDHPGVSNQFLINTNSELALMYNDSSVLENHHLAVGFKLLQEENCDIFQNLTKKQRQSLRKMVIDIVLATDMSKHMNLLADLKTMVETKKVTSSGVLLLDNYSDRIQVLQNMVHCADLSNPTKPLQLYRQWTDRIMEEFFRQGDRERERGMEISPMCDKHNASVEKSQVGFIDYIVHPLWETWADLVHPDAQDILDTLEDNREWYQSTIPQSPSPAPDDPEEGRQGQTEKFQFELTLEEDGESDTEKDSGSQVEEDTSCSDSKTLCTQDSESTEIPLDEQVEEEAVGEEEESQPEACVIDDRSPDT

Progesterone receptor = target: T4, Progesterone receptor (Homo sapiens, UniProt P06401); assay type: functional
T4 sequence (P06401 whole entry): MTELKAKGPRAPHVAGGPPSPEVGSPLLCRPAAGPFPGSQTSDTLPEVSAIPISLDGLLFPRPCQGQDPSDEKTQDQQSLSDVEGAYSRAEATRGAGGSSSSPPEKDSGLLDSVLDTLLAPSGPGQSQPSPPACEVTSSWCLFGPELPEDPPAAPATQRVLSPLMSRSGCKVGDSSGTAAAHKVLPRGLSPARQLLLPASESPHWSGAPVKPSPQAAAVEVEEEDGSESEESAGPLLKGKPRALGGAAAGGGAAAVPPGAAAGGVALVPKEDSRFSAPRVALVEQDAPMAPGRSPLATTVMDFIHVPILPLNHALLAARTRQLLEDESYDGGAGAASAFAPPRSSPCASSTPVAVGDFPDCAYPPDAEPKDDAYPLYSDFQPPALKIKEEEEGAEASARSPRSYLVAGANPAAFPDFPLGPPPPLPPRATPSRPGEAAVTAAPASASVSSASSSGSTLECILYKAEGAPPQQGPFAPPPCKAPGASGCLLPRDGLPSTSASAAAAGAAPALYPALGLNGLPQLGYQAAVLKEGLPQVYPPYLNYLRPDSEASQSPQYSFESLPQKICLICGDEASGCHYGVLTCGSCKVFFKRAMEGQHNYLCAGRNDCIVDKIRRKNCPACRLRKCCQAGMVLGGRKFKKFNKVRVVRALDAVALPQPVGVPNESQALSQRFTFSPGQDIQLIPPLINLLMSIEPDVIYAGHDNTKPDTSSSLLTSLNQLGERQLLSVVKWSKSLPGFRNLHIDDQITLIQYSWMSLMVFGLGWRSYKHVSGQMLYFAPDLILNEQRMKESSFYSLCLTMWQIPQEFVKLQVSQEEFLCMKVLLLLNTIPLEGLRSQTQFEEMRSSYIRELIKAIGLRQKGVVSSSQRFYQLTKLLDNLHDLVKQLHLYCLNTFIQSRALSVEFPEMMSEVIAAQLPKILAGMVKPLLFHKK
Further: assay procedure not described here.

SMILES: CN1CC(=O)N2[C@H](c3ccc4c(c3)OCO4)c3[nH]c4ccccc4c3C[C@@H]2C1=O
- AC50 [1]: > 30 µM
- AC50 (D(1A) dopamine receptor): > 10 µM
- AC50 [2]: > 10 µM
- AC50 [3]: > 10 µM
- AC50 [4]: > 30 µM
- AC50 (Glucocorticoid receptor): > 30 µM
- AC50 (Melanocortin receptor 3): > 30 µM
- AC50 [5]: 34.8 µM

SMILES: COc1ccc2cccc(CCNC(C)=O)c2c1 [AGOMELATINE]
- AC50 [1]: > 30 µM
- AC50 (D(1A) dopamine receptor): > 10 µM
- AC50 [2]: > 10 µM
- AC50 [3]: > 30 µM
- AC50 [4]: > 10 µM
- AC50 [6]: > 30 µM
- AC50 (Glucocorticoid receptor): > 30 µM
- AC50 (Melanocortin receptor 3): > 30 µM
- AC50 [5]: > 10 µM

SMILES: CC(=O)OCC(=O)[C@@]12OC3(CCCC3)O[C@@H]1C[C@H]1[C@@H]3CCC4=CC(=O)C=C[C@]4(C)[C@@]3(F)[C@@H](O)C[C@@]12C [AMCINONIDE]
- AC50 (D(1A) dopamine receptor): > 10 µM
- AC50 [2]: > 10 µM
- AC50 [3]: > 10 µM
- AC50 [4]: > 10 µM
- AC50 [6]: > 30 µM
- AC50 (Glucocorticoid receptor): 0.016 µM
- AC50 (Melanocortin receptor 3): > 10 µM
- AC50 [5]: > 10 µM

SMILES: CN1CCc2cccc3c2[C@H]1Cc1ccc(O)c(O)c1-3 [APOMORPHINE]
- AC50 [1]: 23.4 µM
- AC50 [2]: > 10 µM
- AC50 [3]: > 10 µM
- AC50 [4]: > 30 µM
- AC50 [6]: 2.2 µM
- AC50 (Glucocorticoid receptor): > 30 µM
- AC50 (Melanocortin receptor 3): > 30 µM
- AC50 [5]: 21.9 µM

SMILES: NC(CO)C(=O)NNCc1ccc(O)c(O)c1O (stereo not given) [BENSERAZIDE]
- AC50 [1]: > 30 µM
- AC50 (D(1A) dopamine receptor): > 10 µM
- AC50 [2]: > 10 µM
- AC50 [3]: > 10 µM
- AC50 [4]: > 30 µM
- AC50 [6]: > 30 µM
- AC50 (Melanocortin receptor 3): > 30 µM
- AC50 [5]: > 30 µM

SMILES: CN(C)C(=O)OC1N=C(c2ccccc2)c2cc(Cl)ccc2N(C)C1=O (stereo not given) [CAMAZEPAM]
- AC50 [1]: > 30 µM
- AC50 (D(1A) dopamine receptor): > 10 µM
- AC50 [2]: 0.96 µM
- AC50 [3]: > 10 µM
- AC50 [4]: > 10 µM
- AC50 [6]: 4.3 µM
- AC50 (Glucocorticoid receptor): > 30 µM
- AC50 (Melanocortin receptor 3): > 30 µM
- AC50 [5]: > 10 µM

SMILES: CC(C)C(=O)OCC(=O)[C@@]12O[C@H](C3CCCCC3)O[C@@H]1C[C@H]1[C@@H]3CCC4=CC(=O)C=C[C@]4(C)[C@H]3[C@@H](O)C[C@@]12C [CICLESONIDE]
- AC50 (D(1A) dopamine receptor): > 10 µM
- AC50 [2]: > 10 µM
- AC50 [3]: > 10 µM
- AC50 [4]: > 10 µM
- AC50 [6]: > 30 µM
- AC50 (Melanocortin receptor 3): > 10 µM
- AC50 [5]: > 10 µM

SMILES: CC(=O)O[C@@]12CO[C@@H]1C[C@H](O)[C@@]1(C)C(=O)[C@H](O)C3=C(C)[C@@H](OC(=O)[C@H](O)[C@@H](NC(=O)OC(C)(C)C)c4ccccc4)C[C@@](O)([C@@H](OC(=O)c4ccccc4)[C@H]21)C3(C)C [DOCETAXEL ANHYDROUS]
- AC50 [1]: 19.2 µM
- AC50 (D(1A) dopamine receptor): > 30 µM
- AC50 [2]: > 30 µM
- AC50 [3]: > 30 µM
- AC50 [4]: > 30 µM
- AC50 [6]: > 30 µM
- AC50 (Glucocorticoid receptor): > 30 µM
- AC50 (Progesterone receptor): > 30 µM
- AC50 (Melanocortin receptor 3): > 30 µM

SMILES: Cc1cccc(C)c1NC(=O)C1CCCCN1C (stereo not given) [MEPIVACAINE]
- AC50 [1]: > 30 µM
- AC50 (D(1A) dopamine receptor): > 30 µM
- AC50 [2]: > 30 µM
- AC50 [3]: > 30 µM
- AC50 [4]: > 30 µM
- AC50 [6]: > 30 µM
- AC50 (Glucocorticoid receptor): > 30 µM
- AC50 (Progesterone receptor): > 30 µM
- AC50 (Melanocortin receptor 3): > 30 µM
